Measured values from patent publication US20240285638A1, “METHODS FOR TREATING FACIOSCAPULOHUMERAL MUSCULAR DYSTROPHY (FSHD)” (RESEARCH INSTITUTE AT NATIONWIDE CHILDREN'S HOSPITAL, priority 2021, published 2024).

Legend:
[1] = system: human myoblasts expressing DUX4; assay: Caspase-3/7 activation assay in human myoblasts transfected with DUX4, with or without inhibitor; type: cell-based; settings: inhibitor added 1.5 hours later, increasing concentrations, caspase assay 48 hours later, FIGS. 6A-B
Description: HEK293 cells were transfected with 100 ng plasmid DNA (65,000 cells/well) using Lipofectamine 2000 and assays were performed 48 hours later using the Apo-ONE Homogeneous Caspase-3/7 Assay (Promega). The protocol was followed according to the manufacturer's instructions. Briefly, 100 μl of the reagent was added to each well and the 96-well plate was gently rotated for 20 min. Relative fluorescence was monitored every hour for 4-6 hours. Inhibitor studies were performed in human myoblasts which were transfected with 100 ng of DUX4 DNA (65,000 cells/well) with Lipofectamine 2000. The inhibitors adenosine dialdehyde or salvianolic acid A were added 1.5 hours later and a caspase assay was performed 48 hours later as above. The observation that a DUX4 arginine methylation null mutant protects from cell death and DUX4 interacts with an arginine methyltransferase indicate a role for arginine methylation inhibitors as protective in FSHD disease models. Thus, the global methylation inhibitor, adenosine dialdehyde (AdOx)^17, and the PRMT1 inhibitor, salvianolic acid A (SAA)^18 were tested for their ability to protect against DUX4-mediated cell death. The caspase assay was performed in human myoblasts expressing DUX4 in the presence or absence of AdOx or SAA.

DUX4 [2] = assay: DUX4 biomarker and target gene expression in muscle of FSHD mouse model (TIC-DUX4) after IM or IV injection; type: in vivo
Description: SAA and AdOx, or derivatives thereof, as described herein, are each injected into a FSHD mouse model (TIC-DUX4) or any other mouse model of FSHD mice intramuscularly (IM) or intravenously (IV). After 4, 8, 12, 16, 20, and 24 weeks, the ? DUX4, a DUX4 biomarker, such as Wfdc3 or Trim36, and DUX4 target gene expression are measured by qRT-PCR, RNAscope, or ddPCR.

DUX4 [3] = assay: DUX4-activated biomarkers and target genes in biopsied muscle of FSHD patients after IM or IV injection; type: in vivo, human
Description: SAA and AdOx, or derivatives thereof, as described herein, are injected into patients suffering from FSHD intramuscularly (IM) or intravenously (IV). Prior to treatment and after 4, 8, 12, 16, 20, 24, 28, 32, 36 40, 44, 48, and 52 weeks, DUX4-activated biomarkers and/or DUX4 target genes in muscle of the patients are measured in biopsied muscle as described herein.

Structure (SMILES): O=C(/C=C/c1ccc(O)c(O)c1/C=C/c1ccc(O)c(O)c1)O[C@H](Cc1ccc(O)c(O)c1)C(=O)O [SAA, salvianolic acid A]
- caspase cleavage (DUX4-mediated cell death) [1]: decreased caspase cleavage in a dose-responsive manner
- DUX4 biomarker expression in muscle (Wfdc3 or Trim36) (DUX4 [2]; IM or IV, 4-24 weeks, vs untreated mice): Reduced levels of DUX4 biomarker expression
- expression of DUX4 target genes PRAMEF12, ZSCAN4, TRIM43, LEUTX (DUX4 [2]; IM or IV, vs untreated mice): decreased expression of DUX4 target genes
- muscle strength, morphology, ambulation and motor function (DUX4 [2]; treated mice): improved muscle strength, morphology, and overall ambulation and motor function
- FSHD disease symptoms (DUX4 [3]): Improvement in FSHD disease symptoms
- expression levels of DUX4-activated biomarkers and/or DUX4 target genes in muscle (DUX4 [3]; 4-52 weeks, vs same patients prior to treatment): Reduced expression levels of DUX4-activated biomarkers and/or DUX4 target genes
